Data taken from PubChem BioAssay (NCI).
Values joined by “and” are separate entries in the source; they are usually repeats but may differ in a detail not shown here. Equal values may be shown once.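 Method: 48-hour compound exposure of cells in 96-well plates, five concentrations, linear interpolation of endpoints. The concentration for 50% growth inhibition is given as GI50. TGI: concentration producing complete growth inhibition.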

How the values were obtained:
Experiment in all cases: NCI-60 cell line screen, 48 h
CAKI-1 renal = system: CAKI-1 renal
IGROV1 ovarian = system: IGROV1 ovarian
HL-60(TB) leukemia = system: HL-60(TB) leukemia
OVCAR-3 ovarian = system: OVCAR-3 ovarian
HT29 colon = system: HT29 colon
NCI-H522 lung = system: NCI-H522 lung
UACC-62 melanoma = system: UACC-62 melanoma
SF-268 CNS = system: SF-268 CNS
RPMI-8226 leukemia = system: RPMI-8226 leukemia
MDA-MB-231 breast = system: MDA-MB-231 breast

SMILES: Nc1nc2c(ncn2C2OC(CO)C(O)C2N)c(=O)[nH]1 (stereo not given)
- TGI (CAKI-1 renal): > 100 µM
- TGI (IGROV1 ovarian): > 100 µM
- TGI (HL-60(TB) leukemia): > 100 µM
- TGI (OVCAR-3 ovarian): > 100 µM
- TGI (HT29 colon): > 100 µM
- TGI (NCI-H522 lung): > 100 µM
- TGI (UACC-62 melanoma): > 100 µM
- TGI (SF-268 CNS): > 100 µM

SMILES: Nc1[nH]c(=O)ncc1F
- TGI (CAKI-1 renal): > 100 µM
- TGI (IGROV1 ovarian): > 100 µM
- TGI (HL-60(TB) leukemia): > 100 µM
- TGI (RPMI-8226 leukemia): > 100 µM
- TGI (OVCAR-3 ovarian): > 100 µM
- TGI (HT29 colon): > 100 µM
- TGI (NCI-H522 lung): > 100 µM
- TGI (UACC-62 melanoma): > 100 µM
- TGI (SF-268 CNS): > 100 µM

SMILES: COc1ccc2cccc(C(=O)c3ccc(C)c4c3CCC4)c2c1
- TGI (CAKI-1 renal): 80.8 µM
- TGI (IGROV1 ovarian): 99.2 µM
- TGI (HL-60(TB) leukemia): 44.7 µM
- TGI (OVCAR-3 ovarian): > 100 µM
- TGI (HT29 colon): > 100 µM
- TGI (NCI-H522 lung): 64.1 µM
- TGI (UACC-62 melanoma): 56.5 µM
- TGI (SF-268 CNS): > 100 µM

SMILES: CCOC(=O)C1N(S(=O)(=O)c2ccc(C)cc2)CCC12c1ccccc1N(C(C)=O)C2C(/C=C/C(=O)OC)=C/C(=O)OC (stereo not given)
- TGI (CAKI-1 renal): > 100 µM
- TGI (IGROV1 ovarian): > 100 µM
- TGI (HL-60(TB) leukemia): > 100 µM
- TGI (RPMI-8226 leukemia): > 100 µM
- TGI (OVCAR-3 ovarian): > 100 µM
- TGI (HT29 colon): > 100 µM
- TGI (NCI-H522 lung): > 100 µM
- TGI (UACC-62 melanoma): > 100 µM
- TGI (SF-268 CNS): > 100 µM

SMILES: OCC(O)C(O)c1nn(-c2ccccc2)c2nc3cc(Cl)c(Cl)cc3nc12 (stereo not given)
- TGI (CAKI-1 renal): 41.5 µM
- TGI (IGROV1 ovarian): 90.7 µM
- TGI (HL-60(TB) leukemia): 50.9 µM
- TGI (RPMI-8226 leukemia): > 100 µM
- TGI (OVCAR-3 ovarian): 92.1 µM
- TGI (HT29 colon): 56 µM
- TGI (NCI-H522 lung): > 100 µM
- TGI (UACC-62 melanoma): > 100 µM
- TGI (SF-268 CNS): 80.5 µM

SMILES: CCC1C(C)c2c([nH]c3ccccc23)C2C(=O)N(c3ccccc3)C(=O)C21 (stereo not given)
- TGI (IGROV1 ovarian): 22.3 µM
- TGI (HL-60(TB) leukemia): 33.9 µM
- TGI (RPMI-8226 leukemia): 40.9 µM
- TGI (OVCAR-3 ovarian): 27.1 µM
- TGI (HT29 colon): 28.2 µM
- TGI (UACC-62 melanoma): 21.9 µM
- TGI (SF-268 CNS): 62.5 µM

SMILES: Cn1c2ccccc2c(=Nc2ccccc2)c2c3ccccc3[nH]c21
- GI50 (CAKI-1 renal): 0.78 µM
- TGI (CAKI-1 renal): 2.05 µM
- GI50 (IGROV1 ovarian): 1.64 µM
- TGI (IGROV1 ovarian): > 100 µM
- GI50 (RPMI-8226 leukemia): 1.08 µM
- TGI (RPMI-8226 leukemia): 2.56 µM
- GI50 (HT29 colon): 2.36 µM
- TGI (HT29 colon): > 100 µM
- GI50 (NCI-H522 lung): 2.29 µM
- TGI (NCI-H522 lung): > 100 µM
- GI50 (MDA-MB-231 breast): 1.62 µM
- TGI (MDA-MB-231 breast): 3.11 µM
- GI50 (UACC-62 melanoma): 0.696 µM
- TGI (UACC-62 melanoma): 2.01 µM
- GI50 (SF-268 CNS): 0.436 µM
- TGI (SF-268 CNS): 2.37 µM

SMILES: Cc1cc(C)cc(-n2c3nc(=O)n(C)c(=O)c-3nc3ccccc32)c1
- TGI (CAKI-1 renal): 87.3 µM
- TGI (IGROV1 ovarian): 94.6 µM
- TGI (RPMI-8226 leukemia): > 100 µM
- TGI (OVCAR-3 ovarian): 12.6 µM
- TGI (HT29 colon): 41.3 µM
- TGI (NCI-H522 lung): 44.2 µM
- TGI (UACC-62 melanoma): 31.5 µM
- TGI (SF-268 CNS): > 100 µM

SMILES: O=C(CC(=O)N1N=C(c2ccccc2)C(N=Nc2ccc(C(=O)O)cc2)C1=O)Nc1ccc(F)cc1 (stereo not given)
- TGI (CAKI-1 renal): > 100 µM
- TGI (IGROV1 ovarian): 80.5 µM
- TGI (HL-60(TB) leukemia): 42.9 µM
- TGI (RPMI-8226 leukemia): 99 µM
- TGI (OVCAR-3 ovarian): 56.2 µM
- TGI (HT29 colon): > 100 µM
- TGI (NCI-H522 lung): 33.3 µM
- TGI (UACC-62 melanoma): 42.8 µM
- TGI (SF-268 CNS): > 100 µM

SMILES: COC(=O)/C=C/C(=O)C1C(C(=O)OC)C2(C(=O)OC)CCC1(C(=O)OC)N2 (stereo not given)
- TGI (CAKI-1 renal): > 100 µM
- TGI (IGROV1 ovarian): > 100 µM
- TGI (HL-60(TB) leukemia): > 100 µM
- TGI (RPMI-8226 leukemia): > 100 µM
- TGI (OVCAR-3 ovarian): > 100 µM
- TGI (HT29 colon): > 100 µM
- TGI (UACC-62 melanoma): > 100 µM
- TGI (SF-268 CNS): > 100 µM

SMILES: Cn1c2c([N+](=O)[O-])[se]nc2c(=O)n1-c1ccc([N+](=O)[O-])cc1
- TGI (CAKI-1 renal): 4.03 µM
- TGI (IGROV1 ovarian): 2.59 µM
- TGI (HL-60(TB) leukemia): > 23.1 µM
- TGI (RPMI-8226 leukemia): 5.51 µM
- TGI (OVCAR-3 ovarian): 3.12 µM
- TGI (HT29 colon): 8.12 µM
- TGI (NCI-H522 lung): 2.94 µM
- TGI (UACC-62 melanoma): 3.25 µM
- TGI (SF-268 CNS): 4.77 µM

SMILES: CC(=O)NS(=O)(=O)c1ccc(NC(=O)COC(=O)c2cccc3c(=O)c4ccccc4[nH]c23)cc1
- TGI (IGROV1 ovarian): > 100 µM
- TGI (HL-60(TB) leukemia): > 100 µM
- TGI (RPMI-8226 leukemia): > 100 µM
- TGI (OVCAR-3 ovarian): > 100 µM
- TGI (HT29 colon): > 100 µM
- TGI (NCI-H522 lung): > 100 µM
- TGI (UACC-62 melanoma): > 100 µM

SMILES: C=CN1C(=O)OC(c2ccccc2)C1c1ccccc1 (stereo not given)
- GI50 (CAKI-1 renal): > 100 µM
- TGI (CAKI-1 renal): > 100 µM
- GI50 (IGROV1 ovarian): > 100 µM
- TGI (IGROV1 ovarian): > 100 µM
- TGI (HL-60(TB) leukemia): > 100 µM
- GI50 (RPMI-8226 leukemia): > 31.6 µM and 88.6 µM
- TGI (RPMI-8226 leukemia): > 100 µM
- GI50 (OVCAR-3 ovarian): > 100 µM
- TGI (OVCAR-3 ovarian): > 100 µM
- GI50 (HT29 colon): > 100 µM
- TGI (HT29 colon): > 100 µM
- GI50 (NCI-H522 lung): > 100 µM
- TGI (NCI-H522 lung): > 100 µM
- GI50 (UACC-62 melanoma): > 100 µM
- TGI (UACC-62 melanoma): > 100 µM
- GI50 (SF-268 CNS): > 100 µM
- TGI (SF-268 CNS): > 100 µM

SMILES: CCCCCCCCCCCC(=O)OCC1OC(n2cc(F)c(=O)[nH]c2=O)C(NC(=O)OCc2ccccc2)C(O)C1O (stereo not given)
- TGI (CAKI-1 renal): > 100 µM
- TGI (IGROV1 ovarian): > 100 µM
- TGI (HL-60(TB) leukemia): 49.7 µM
- TGI (RPMI-8226 leukemia): 53.5 µM
- TGI (OVCAR-3 ovarian): 68.4 µM
- TGI (HT29 colon): 29.8 µM
- TGI (NCI-H522 lung): 30.8 µM
- TGI (UACC-62 melanoma): 38.6 µM
- TGI (SF-268 CNS): > 100 µM

SMILES: COC(=O)C1=C(OC)c2cc3c(cc2C(c2cc(OC)c(OC)c(OC)c2)C1C(=O)OC)OCO3 (stereo not given)
- TGI (CAKI-1 renal): > 100 µM
- TGI (IGROV1 ovarian): > 100 µM
- TGI (HL-60(TB) leukemia): > 100 µM
- TGI (RPMI-8226 leukemia): > 100 µM
- TGI (OVCAR-3 ovarian): > 100 µM
- TGI (HT29 colon): > 100 µM
- TGI (UACC-62 melanoma): > 100 µM
- TGI (SF-268 CNS): > 100 µM

SMILES: O=C(c1cc(O)ccc1O)c1ccccc1C(Cl)(Cl)Cl
- TGI (CAKI-1 renal): > 100 µM
- TGI (IGROV1 ovarian): > 100 µM
- TGI (HL-60(TB) leukemia): 97.3 µM
- TGI (RPMI-8226 leukemia): > 100 µM
- TGI (OVCAR-3 ovarian): > 100 µM
- TGI (HT29 colon): > 100 µM
- TGI (NCI-H522 lung): > 100 µM
- TGI (UACC-62 melanoma): > 100 µM
- TGI (SF-268 CNS): > 100 µM
